The target in the test is T1, human MGL from HeLa cells (Homo sapiens, UniProt Q99685).
T1 construct: combining endogenously expressed MGL from HeLa cells with test compounds; endogenous in cells; host or cells: HeLa cells / cell homogenates
T1 sequence (Q99685 1-303): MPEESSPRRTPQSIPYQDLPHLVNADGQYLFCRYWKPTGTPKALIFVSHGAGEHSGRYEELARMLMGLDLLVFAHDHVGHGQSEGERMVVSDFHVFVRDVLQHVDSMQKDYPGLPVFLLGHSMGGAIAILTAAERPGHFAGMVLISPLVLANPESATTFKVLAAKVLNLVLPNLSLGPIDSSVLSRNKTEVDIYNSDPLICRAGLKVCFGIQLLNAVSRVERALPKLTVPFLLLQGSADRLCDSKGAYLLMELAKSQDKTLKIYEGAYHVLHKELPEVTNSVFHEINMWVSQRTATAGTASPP
The experiment in a line: In vitro MGL activity assay: [glycerol-1,3-3H]-oleyl glycerol cleavage by MGL from HeLa cells. The class given is biochemical. The note with it: 300 nM [Glycerol-1,3-3H]-oleyl glycerol, one hour incubation. From the text: MGL is the predominant hydrolase in HeLa cells/cell homogenates.
Turning to `C[C@H]1c2nn(C)c(-c3cccc(Cl)c3)c2CCN1C(=O)c1ccc2cc[nH]c2n1` [Example 130, (S)-(3-(3-Chlorophenyl)-2,7-dimethyl-2,4,5,7-tetrahydro-6H-pyrazolo[3,4-c]pyridin-6-yl)(1H-pyrrolo[2,3-b]pyridin-6-yl)methanone], half-maximal inhibition (IC50) required 274 nM.
With `C[C@H]1c2nn(C)c(-c3cccc(Cl)c3)c2CCN1C(=O)c1ccc2ncccc2n1` [Example 131, (S)-(3-(3-Chlorophenyl)-2,7-dimethyl-2,4,5,7-tetrahydro-6H-pyrazolo[3,4-c]pyridin-6-yl)(1,5-naphthyridin-2-yl)methanone], 46.2 nM corresponded to half-maximal inhibition (IC50).
As for `C[C@H]1c2nn(C)c(-c3cccc(Cl)c3)c2CCN1C(=O)c1cc(Br)c2nccnc2c1` [Example 135, (S)-(8-Bromoquinoxalin-6-yl)(3-(3-chlorophenyl)-2,7-dimethyl-2,4,5,7-tetrahydro-6H-pyrazolo[3,4-c]pyridin-6-yl)methanone], the figure is 10.6 nM; as for `CCC1c2nn(C)c(-c3cccc(F)c3)c2CCN1C(=O)c1ccc2ncccc2c1` (stereo not shown) [Example 136, (7-Ethyl-3-(3-fluorophenyl)-2-methyl-2,4,5,7-tetrahydro-6H-pyrazolo[3,4-c]pyridin-6-yl)(quinolin-6-yl)methanone], 31.4 nM; as for `C[C@H]1c2nn(C)c(-c3cc(F)cc(F)c3)c2CCN1C(=O)c1ccccc1OCCF` [Example 137, [(7S)-3-(3,5-Difluorophenyl)-2,7-dimethyl-5,7-dihydro-4H-pyrazolo[3,4-c]pyridin-6-yl]-[2-(2-fluoroethoxy)phenyl]methanone], 240 nM.
The compound `C[C@H]1c2nn(C)c(-c3cc(F)cc(F)c3)c2CCN1C(=O)c1ccc(OCCF)cc1` [Example 138, (S)-(3-(3,5-Difluorophenyl)-2,7-dimethyl-2,4,5,7-tetrahydro-6H-pyrazolo[3,4-c]pyridin-6-yl)(4-(2-fluoroethoxy)phenyl)methanone] displayed a 50% inhibitory concentration (IC50) of 39.5 nM.
As for `C[C@H]1c2nn(C)c(-c3cc(F)cc(F)c3)c2CCN1C(=O)c1cccc(OCCF)c1` [Example 139, (S)-(3-(3,5-Difluorophenyl)-2,7-dimethyl-2,4,5,7-tetrahydro-6H-pyrazolo[3,4-c]pyridin-6-yl)(3-(2-fluoroethoxy)phenyl)methanone], the 50% inhibitory concentration (IC50) is 9.8 nM.
In turn, `C[C@H]1c2nn(C)c(-c3cc(F)cc(F)c3)c2CCN1C(=O)c1cccc(OCCF)c1F` [Example 141, (S)-(3-(3,5-Difluorophenyl)-2,7-dimethyl-2,4,5,7-tetrahydro-6H-pyrazolo[3,4-c]pyridin-6-yl)(2-fluoro-3-(2-fluoroethoxy)phenyl)methanone] showed an IC50 of 1.72 nM.
Compound `C[C@H]1c2nn(C)c(-c3cc(F)cc(F)c3)c2CCN1C(=O)c1cc(OCCF)ccc1F` [Example 142, (S)-(3-(3,5-Difluorophenyl)-2,7-dimethyl-2,4,5,7-tetrahydro-6H-pyrazolo[3,4-c]pyridin-6-yl)(2-fluoro-5-(2-fluoroethoxy)phenyl)methanone] had an IC50 of 3.7 nM.
Take `C[C@H]1c2nn(C)c(-c3cc(F)cc(F)c3)c2CCN1C(=O)c1cc(F)cc(OCCF)c1` [Example 143, (S)-(3-(3,5-Difluorophenyl)-2,7-dimethyl-2,4,5,7-tetrahydro-6H-pyrazolo[3,4-c]pyridin-6-yl)(3-fluoro-5-(2-fluoroethoxy)phenyl)methanone]: half-maximal inhibition (IC50) required 4.21 nM.
`C[C@H]1c2nn(C)c(-c3cc(F)cc(F)c3)c2CCN1C(=O)c1ccc(F)c(OCCF)c1` [Example 144, (S)-(3-(3,5-Difluorophenyl)-2,7-dimethyl-2,4,5,7-tetrahydro-6H-pyrazolo[3,4-c]pyridin-6-yl)(4-fluoro-3-(2-fluoroethoxy)phenyl)methanone] had an IC50 of 55 nM.
The figure for `C[C@H]1c2nn(C)c(-c3cc(F)cc(F)c3)c2CCN1C(=O)c1cccc(OCCF)c1Cl` [Example 145, [2-Chloro-3-(2-fluoroethoxy)phenyl]-[(7S)-3-(3,5-difluorophenyl)-2,7-dimethyl-5,7-dihydro-4H-pyrazolo[3,4-c]pyridin-6-yl]methanone] is 2.13 nM; for `C[C@H]1c2nn(C)c(-c3cc(F)cc(F)c3)c2CCN1C(=O)c1cc(OCCF)ccc1Cl` [Example 146, (2-Chloro-5-(2-fluoroethoxy)phenyl)(3-(3,5-difluorophenyl)-2,7-dimethyl-2,4,5,7-tetrahydro-6H-pyrazolo[3,4-c]pyridin-6-yl)methanone] it is 3.73 nM.
The figure for `C[C@H]1c2nn(C)c(-c3cc(F)cc(F)c3)c2CCN1C(=O)c1ccccc1-n1nccn1` [Example 147, (S)-(2-(2H-1,2,3-Triazol-2-yl)phenyl)(3-(3,5-difluorophenyl)-2,7-dimethyl-2,4,5,7-tetrahydro-6H-pyrazolo[3,4-c]pyridin-6-yl)methanone] is 71.7 nM.
Compound `CC1c2nn(C)c(-c3cc(F)cc(F)c3)c2CCN1C(=O)c1ncn(-c2ccccc2)n1` (stereo not shown) [Example 148, (3-(3,5-Difluorophenyl)-2,7-dimethyl-2,4,5,7-tetrahydro-6H-pyrazolo[3,4-c]pyridin-6-yl)(1-phenyl-1H-1,2,4-triazol-3-yl)methanone] yielded an IC50 of 67.1 nM.
On to `CCc1nc(C(=O)N2CCc3c(nn(C)c3-c3cc(F)cc(F)c3)[C@@H]2C)nn1-c1ccccc1` [Example 149, (S)-(3-(3,5-Difluorophenyl)-2,7-dimethyl-2,4,5,7-tetrahydro-6H-pyrazolo[3,4-c]pyridin-6-yl)(5-ethyl-1-phenyl-1H-1,2,4-triazol-3-yl)methanone], for which the half-inhibitory concentration (IC50) came to 11.9 nM.
As to `C[C@H]1c2nn(C)c(-c3cc(F)cc(F)c3)c2CCN1C(=O)c1cccc2c1ccn2CCF` [Example 150, (S)-(3-(3,5-Difluorophenyl)-2,7-dimethyl-2,4,5,7-tetrahydro-6H-pyrazolo[3,4-c]pyridin-6-yl)(1-(2-fluoroethyl)-1H-indol-4-yl)methanone], the IC50 was 0.67 nM.
The figure for `C[C@H]1c2nn(C)c(-c3cc(F)cc(F)c3)c2CCN1C(=O)c1ccnc2c1ccn2CCF` [Example 152, (S)-(3-(3,5-Difluorophenyl)-2,7-dimethyl-2,4,5,7-tetrahydro-6H-pyrazolo[3,4-c]pyridin-6-yl)(1-(2-fluoroethyl)-1H-pyrrolo[2,3-b]pyridin-4-yl)methanone] is 1.63 nM.
The compound `C[C@H]1c2nn(C)c(-c3cc(F)cc(F)c3)c2CCN1C(=O)c1cnc2ccoc2c1` [Example 153, (S)-(3-(3,5-Difluorophenyl)-2,7-dimethyl-2,4,5,7-tetrahydro-6H-pyrazolo[3,4-c]pyridin-6-yl)(furo[3,2-b]pyridin-6-yl)methanone] displayed an IC50 of 15.4 nM.
Consider `C[C@@H]1c2nn(C)c(-c3cc(F)cc(F)c3)c2CCN1C(=O)c1cnc2ccoc2c1` [Example 154, (R)-(3-(3,5-Difluorophenyl)-2,7-dimethyl-2,4,5,7-tetrahydro-6H-pyrazolo[3,4-c]pyridin-6-yl)(furo[3,2-b]pyridin-6-yl)methanone], for which the IC50 came out at 6550 nM.
With `CC1c2nn(C(F)F)c(-c3cc(F)cc(F)c3)c2CCN1C(=O)c1ccc2ncccc2c1` (stereo not shown) [Example 155, (2-(Difluoromethyl)-3-(3,5-difluorophenyl)-7-methyl-2,4,5,7-tetrahydro-6H-pyrazolo[3,4-c]pyridin-6-yl)(quinolin-6-yl)methanone], the IC50 stood at 4.63 nM.
As for `CC1c2nn(C(F)(F)F)c(-c3cc(F)cc(F)c3)c2CCN1C(=O)c1ccc2ncccc2c1` (stereo not shown) [Example 156, (3-(3,5-Difluorophenyl)-7-methyl-2-(trifluoromethyl)-2,4,5,7-tetrahydro-6H-pyrazolo[3,4-c]pyridin-6-yl)(quinolin-6-yl)methanone], the figure is 17 nM; as for `[2H]C([2H])([2H])n1nc2c(c1-c1cc(F)cc(F)c1)CCN(C(=O)c1ccc3ncccc3c1)C2C` (stereo not shown) [Example 157, (3-(3,5-Difluorophenyl)-7-methyl-2-(methyl-d3)-2,4,5,7-tetrahydro-6H-pyrazolo[3,4-c]pyridin-6-yl)(quinolin-6-yl)methanone], 13.8 nM.
As to `CC1c2nn(C)c(-c3cc(F)cc(F)c3)c2CCN1C(=O)c1cc2ccccc2cn1` (stereo not shown) [Example 160, (3-(3,5-Difluorophenyl)-2,7-dimethyl-2,4,5,7-tetrahydro-6H-pyrazolo[3,4-c]pyridin-6-yl)(isoquinolin-3-yl)methanone], the concentration for half-maximal inhibition (IC50) stood at 260 nM.
For the compound `CC1c2nn(C)c(-c3cc(F)cc(F)c3)c2CCN1C(=O)c1ccc2ccncc2c1` (stereo not shown) [Example 161, (3-(3,5-Difluorophenyl)-2,7-dimethyl-2,4,5,7-tetrahydro-6H-pyrazolo[3,4-c]pyridin-6-yl)(isoquinolin-7-yl)methanone], 260 nM corresponded to half-maximal inhibition (IC50).
`CC1c2nn(C)c(-c3cc(F)cc(F)c3)c2CCN1C(=O)c1ccc2nccc(Br)c2c1` (stereo not shown) [Example 162, (4-Bromoquinolin-6-yl)(3-(3,5-difluorophenyl)-2,7-dimethyl-2,4,5,7-tetrahydro-6H-pyrazolo[3,4-c]pyridin-6-yl)methanone]: the IC50 worked out at 11.3 nM.
Compound `CC1c2nn(C)c(-c3cc(F)cc(F)c3)c2CCN1C(=O)c1ccc2ncccc2c1Cl` (stereo not shown) [Example 163, (5-Chloroquinolin-6-yl)(3-(3,5-difluorophenyl)-2,7-dimethyl-2,4,5,7-tetrahydro-6H-pyrazolo[3,4-c]pyridin-6-yl)methanone] came in with an IC50 of 11.8 nM.
Turning to `C[C@H]1c2nn(C)c(-c3cc(F)cc(F)c3)c2CCN1C(=O)c1cc(C(F)(F)F)c2ncccc2c1` [Example 164, (S)-(3-(3,5-Difluorophenyl)-2,7-dimethyl-2,4,5,7-tetrahydro-6H-pyrazolo[3,4-c]pyridin-6-yl)(8-(trifluoromethyl)quinolin-6-yl)methanone], the IC50 came out at 38.4 nM.

Usually IC50 stands for the concentration that inhibits the measured activity by half.

The values are drawn from US11820766B2, “Monoacylglycerol lipase modulators” (Janssen Pharmaceutica NV, priority 2018, dated 2023).
